Data: patent publication US20020002269A1, “ARTEMIN, A NEUROTROPHIC FACTOR” (priority 1998, published 2002)

B1: GDNF: recombinant human mature GDNF obtained from Genentech (protein, UniProt P39905 78-211, looked up)
Glial cell line-derived …: SPDKQMAVLPRRERNRQAAAANPENSRGKGRRGQRGKNRGCVLTAIHLNVTDLGLGYETKEELIFRYCSGSCDAAETTYDKILKNLSRNRRLVSDKVGQACCRPIAFDDDLSFLDDNLVYHILRKHSAKRCGCI

What was measured:
[1] = system: superior cervical ganglion (SCG) neurons; assay: Survival of cultured superior cervical ganglion neurons after NGF withdrawal; assay type: cell-based, rat; conditions: 50 ng/ml, FIG. 7E
Experimental: Each GDNF ligand family member consisted of the human mature amino acid sequence and was produced by standard recombinant DNA methods. Recombinant GDNF, neurturin and persephin were obtained from Genentech while recombinant artemin was produced as described in Example 3.
The cultures were performed using standard methods described elsewhere (Kotzbauer et al., Neuron 12:763-773, 1994; Kotzbauer et al., Nature 384:467-470, 1996; Milbrandt et al., Neuron 20:245-253, 1998). […] Cultures were maintained for 3 days, after which they were fixed in 4% paraformaldehyde and stained with toluidine blue, and surviving neurons were counted. For nodose ganglion and dorsal root ganglion neuron cultures, dissociated neurons were plated directly into NGF (for dorsal root ganglia), or BDNF (for nodose ganglia, 100 ng/ml) or one of the GDNF ligands in serum-containing medium (AM50 with anti-NGF antibodies), and cells surviving after 3 days in culture were counted as above. Trigeminal ganglia were dissected, dissociated, and plated directly into medium containing NGF or the indicated GDNF ligands, and the number of surviving cells was assessed after 3 days in vitro. […]

[2] = target: T1, GFRα3-Fc (Homo sapiens, UniProt O60609); assay: Direct binding of soluble GFRα3-Fc receptor body to plate-coated ligand; conditions: ligand coated at 325 ng/ml, absence of RET, FIG. 9E
T1 construct: purchased R&D Systems
Experimental: To investigate which if any of the known coreceptor(s) artemin can utilize to activate RET, its ability to directly bind to soluble Fc-fusion forms of GFRα1, GFRα2, or GFRα3 was assessed. GFRα1-Fc, GFRα2-Fc and GFRα3-Fc fusion proteins were obtained from R&D Systems. Binding assays were performed similarly to assays previously described (Sanicola et al., Proc. Natl. Acad. Sci., USA 94:6238-6243, 1997). Recombinant GDNF, neurturin, artemin, persephin, or purified bovine serum albumin (BSA; Pierce) were coated to Nunc-Immuno MaxiSorp microtiter plates at 325 ng/ml in TBS (10 mM Tris-HCl pH 7.5, 150 mM NaCl) for 1 hour at 25° C. Plates were washed (3× in TBS/0.03% Tween-20), and then blocked (blocking solution: TBS/1% BSA) for 1 hr at 25° C. Receptor bodies diluted in blocking solution were added and incubated for 2 hr at 25° C., washed 5X, then incubated with 1:10,000 dilution of HRP-conjugated anti-human Fc antibodies in blocking solution (Jackson Immunoresearch) for 45 minutes at 25° C. […] The reaction was stopped by adding an equal volume of 0.5M H2SO4, and color was measured in a plate reader at 450 nm. Non-specific binding of receptor bodies to the plates was measured in BSA coated wells, and this binding was subtracted from all other measurements.

[3] = target: T2, GFRα3/RET (Homo sapiens, UniProt O60609+P07949); assay: Ga14-Elk/Ga14-Luc reporter in RET-3T3 fibroblasts transfected with GFRα3; assay type: cell-based; conditions: RET-3T3, 50 ng/ml for 6-8 hours, FIG. 10A
T2 construct: a fragment containing the complete coding region of human GFRα3 was PCR-amplified from a human pituitary cDNA library; expressed in transfected cells; host or cells: MG87 fibroblasts stably expressing human RET (RET-3T3), transiently transfected with pCB6-GFRα3
Experimental: (§1) Thus, to directly test which receptor combinations can form functional receptors for artemin, expression plasmids for the individual GFRA coreceptors together with the Ga14-Elk/Ga14-Luc reporter system were transiently transformed into fibroblasts that stably express RET. […]
(§2) NLF neuroblastoma cells, which naturally express GFRα2/RET (Tansey et al., submitted), or the RET-3T3 cells were plated at 85,000 cells/well in 12-well plates, and cotransfected with the reporter plasmids Ga14-Luc and CMV-Ga14-Elk (250 ng/well and 50 ng/well, respectively), CMV-lacZ (50 ng/well) for transfection normalization, one of the CMV-GFRA expression plasmids (500 ng/well), and pBluescript (650 ng/well) as carrier for a total of 1.5 μg DNA/well using the Superfect reagent (Qiagen) according to the manufacturer's instructions. […] Measurement of luciferase and β-galactosidase activity was measured using a luminometer and performed as described (Svaren et al., EMBO J 17:6010-6019, 1998). The average luciferase activity of duplicate samples was normalized to β-galactosidase activity of the cotransformed lacZ reporter, and fold activation was calculated by dividing the normalized activity in factor-treated cells by that in the no treatment control.

[4] = system: NLF cells transformed with GFRα1; assay: Ga14-Elk/Ga14-Luc reporter in NLF neuroblastoma cells transformed with GFRα1; assay type: cell-based; conditions: factor for 24 hours, low-serum medium, FIG. 10B
Experimental: as §1, §2

[5] = system: NLF cells transformed with GFRα2; assay: Ga14-Elk/Ga14-Luc reporter in NLF neuroblastoma cells transformed with GFRα2; assay type: cell-based; conditions: factor for 24 hours, low-serum medium, FIG. 10B
Experimental: as §1, §2

T2 sequence (O60609 32-374 limits assumed): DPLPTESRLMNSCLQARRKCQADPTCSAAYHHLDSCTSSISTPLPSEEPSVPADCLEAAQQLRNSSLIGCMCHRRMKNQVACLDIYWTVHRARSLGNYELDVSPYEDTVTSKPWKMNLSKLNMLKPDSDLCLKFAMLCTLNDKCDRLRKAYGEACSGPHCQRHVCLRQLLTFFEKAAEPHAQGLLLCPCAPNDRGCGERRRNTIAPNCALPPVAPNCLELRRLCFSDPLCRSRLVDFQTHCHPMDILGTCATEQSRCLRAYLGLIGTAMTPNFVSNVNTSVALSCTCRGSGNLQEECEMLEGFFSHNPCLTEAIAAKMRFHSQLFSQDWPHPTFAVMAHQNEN
T2 sequence (P07949 29-1114): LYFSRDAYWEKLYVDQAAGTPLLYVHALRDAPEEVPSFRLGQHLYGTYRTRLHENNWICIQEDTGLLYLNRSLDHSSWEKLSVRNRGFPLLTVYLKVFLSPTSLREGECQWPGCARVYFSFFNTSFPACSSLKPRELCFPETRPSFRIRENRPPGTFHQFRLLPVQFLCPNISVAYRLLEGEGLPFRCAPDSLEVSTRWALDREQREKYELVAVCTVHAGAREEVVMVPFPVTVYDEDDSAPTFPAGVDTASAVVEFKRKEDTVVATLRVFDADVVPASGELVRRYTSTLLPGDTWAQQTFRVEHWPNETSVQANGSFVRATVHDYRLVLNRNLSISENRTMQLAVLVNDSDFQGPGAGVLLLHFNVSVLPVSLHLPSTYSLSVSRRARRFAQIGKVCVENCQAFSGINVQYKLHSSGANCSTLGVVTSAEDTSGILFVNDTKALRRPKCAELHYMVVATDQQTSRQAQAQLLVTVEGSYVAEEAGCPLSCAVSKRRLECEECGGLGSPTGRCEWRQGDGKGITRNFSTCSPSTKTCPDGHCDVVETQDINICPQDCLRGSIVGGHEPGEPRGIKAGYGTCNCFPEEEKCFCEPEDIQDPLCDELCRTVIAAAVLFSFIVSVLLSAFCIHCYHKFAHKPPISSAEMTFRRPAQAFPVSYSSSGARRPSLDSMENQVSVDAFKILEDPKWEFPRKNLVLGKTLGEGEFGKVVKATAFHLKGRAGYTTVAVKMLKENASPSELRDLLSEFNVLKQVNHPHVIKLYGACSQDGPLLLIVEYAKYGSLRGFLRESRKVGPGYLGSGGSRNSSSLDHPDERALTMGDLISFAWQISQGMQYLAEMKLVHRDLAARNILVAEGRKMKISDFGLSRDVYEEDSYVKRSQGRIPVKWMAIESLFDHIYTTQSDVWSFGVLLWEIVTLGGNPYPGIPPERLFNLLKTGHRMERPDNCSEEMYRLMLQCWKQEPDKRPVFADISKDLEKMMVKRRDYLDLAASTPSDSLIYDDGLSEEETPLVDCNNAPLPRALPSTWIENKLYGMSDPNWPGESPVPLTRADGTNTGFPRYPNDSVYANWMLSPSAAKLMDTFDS
T1 sequence (O60609 with tags, fused parts or gaps limits assumed): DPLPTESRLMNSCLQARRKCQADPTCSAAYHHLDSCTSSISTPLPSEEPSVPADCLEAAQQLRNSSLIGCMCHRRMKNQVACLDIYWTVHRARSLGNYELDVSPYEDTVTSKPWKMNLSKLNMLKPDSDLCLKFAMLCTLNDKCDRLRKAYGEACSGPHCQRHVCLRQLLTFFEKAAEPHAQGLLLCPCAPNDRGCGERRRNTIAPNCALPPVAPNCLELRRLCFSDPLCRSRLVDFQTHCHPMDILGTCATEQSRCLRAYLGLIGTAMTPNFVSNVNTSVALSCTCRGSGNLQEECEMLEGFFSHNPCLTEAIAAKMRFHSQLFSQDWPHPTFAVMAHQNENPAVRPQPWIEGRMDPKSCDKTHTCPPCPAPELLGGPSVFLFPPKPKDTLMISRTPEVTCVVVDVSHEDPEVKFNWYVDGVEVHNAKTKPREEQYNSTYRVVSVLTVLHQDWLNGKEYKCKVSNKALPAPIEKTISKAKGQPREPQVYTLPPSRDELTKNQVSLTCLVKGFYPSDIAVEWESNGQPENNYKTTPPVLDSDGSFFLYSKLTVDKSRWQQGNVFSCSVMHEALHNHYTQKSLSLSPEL

| Molecule | survival of SCG neurons ([1]; 3 days after 5 days in NGF, anti-NGF antibodies) | number of SCG neurons supported compared with GDNF or neurturin [1] | direct binding of GFRα3-Fc [2] | activation of RET signaling in cells expressing GFRα3/RET (luciferase reporter) [3] | response of NLF cells transformed with GFRα1 (luciferase reporter) [4] | response of NLF cells transformed with GFRα2 (luciferase reporter) [5] |
| --- | --- | --- | --- | --- | --- | --- |
| artemin: recombinant mature human artemin (FIG. 3A, SEQ ID NO:3) with 8-histidine tag, produced in E. coli; GDNF family neurotrophic factor | supported the survival of SCG neurons | fewer neurons were supported by artemin than by GDNF or neurturin | able to bind to artemin | able to activate GFRα3/RET | became responsive to artemin | not GFRα2 |
| B1 | – | – | – | not GFRα3/RET | responded more intensely to GDNF | – |
